Source: the NIST ThermoML archive (doi:10.1021/je300742t)
± gives the expanded uncertainty stated by the source.

Conditions: 298.15 K, 101.33 kPa, Liquid; for viscosity: Capillary tube (Ostwald / Ubbelohde) method; for speed of sound: Sing-around technique in a fixed-path interferometer; for mass density: Vibrating tube method

## CN1CCCC1=O [N-methylpyrrolidone]
  viscosity: 1.681 ± 0.013 mPa·s
  speed of sound: 1545.2 ± 1.7 m/s
  mass density: 1028.3 ± 0.31 kg/m3

## NCCO [2-aminoethan-1-ol]
  viscosity: 18.74 ± 0.13 mPa·s
  speed of sound: 1719.2 ± 1.7 m/s
  mass density: 1011.98 ± 0.3 kg/m3
